Results on six compounds are retold here after ChEMBL document CHEMBL4033767, “Structure-Guided Strategy for the Development of Potent Bivalent ERK Inhibitors” (ACS Med Chem Lett, 2017).

Usually Kd stands for the constant that tells how readily two partners part at equilibrium. The IC50 is the concentration that gives 50% inhibition.

Residues, ends and D or L forms follow the SMILES beside them. *: point of attachment. X1 = Nc1nn(CC(=O)*)c2nnc(-c3c(-c4ccccc4)nn4ccccc34)cc12; PEG4 = NCCOCCOCCOCCOCCC(=O)O

The target of assay [1] is T1, Mitogen-activated protein kinase 1 (Homo sapiens, UniProt P28482). Briefly: Binding affinity to non-phosphorylated full length N-terminal His6-tagged/SUMO-fused ERK2 (1 to 360 residues) (unknown origin) by isothermal titration method. Background: In ITC the heat of successive injections is recorded.
T1 sequence (P28482 whole entry, the tested form may be a part): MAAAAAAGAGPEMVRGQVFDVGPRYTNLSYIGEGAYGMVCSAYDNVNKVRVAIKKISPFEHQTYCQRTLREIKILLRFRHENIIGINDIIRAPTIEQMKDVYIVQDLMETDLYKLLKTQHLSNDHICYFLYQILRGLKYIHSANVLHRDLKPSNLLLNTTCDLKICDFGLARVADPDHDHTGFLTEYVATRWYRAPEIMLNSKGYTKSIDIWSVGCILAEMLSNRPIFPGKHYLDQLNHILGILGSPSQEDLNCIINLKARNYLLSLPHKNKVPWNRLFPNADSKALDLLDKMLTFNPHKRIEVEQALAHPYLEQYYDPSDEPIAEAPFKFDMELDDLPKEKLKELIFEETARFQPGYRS
For assay [2], the species on record is Homo sapiens. Briefly: Selectivity ratio of compound affinity for C-terminal FLAG-tagged human ERK2 to C-terminal FLAG-tagged human p38 alpha.
Assay [3] deals with Mitogen-activated protein kinase 9 (Homo sapiens) (UniProt P45984). Briefly: Inhibition of full length wild type human JNK2 (M1 to Q382 residues) expressed in mammalian expression system assessed as residual activity at 2 uM by KINOMEscan assay.
Chain of Mitogen-activated protein kinase 9 (Homo sapiens) (P45984 whole entry, looked up, the tested form may be a part): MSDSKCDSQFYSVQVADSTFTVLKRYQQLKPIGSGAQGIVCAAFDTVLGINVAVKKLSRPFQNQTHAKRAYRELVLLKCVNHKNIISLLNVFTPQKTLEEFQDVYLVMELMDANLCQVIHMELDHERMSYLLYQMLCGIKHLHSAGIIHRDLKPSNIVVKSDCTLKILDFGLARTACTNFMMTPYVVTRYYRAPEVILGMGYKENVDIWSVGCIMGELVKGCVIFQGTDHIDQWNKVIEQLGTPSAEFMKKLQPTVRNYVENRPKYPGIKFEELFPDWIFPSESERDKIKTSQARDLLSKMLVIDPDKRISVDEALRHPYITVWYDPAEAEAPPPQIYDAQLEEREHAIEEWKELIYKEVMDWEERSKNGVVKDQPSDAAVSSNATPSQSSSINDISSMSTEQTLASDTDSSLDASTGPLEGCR
Assay [4] deals with Mitogen-activated protein kinase 14 (Homo sapiens) (UniProt Q16539). Briefly: Inhibition of full length wild type human p38alpha (M1 to S360 residues) expressed in bacterial expression system assessed as residual activity at 2 uM by KINOMEscan assay.
Chain of Mitogen-activated protein kinase 14 (Homo sapiens) (Q16539 whole entry, the tested form may be a part): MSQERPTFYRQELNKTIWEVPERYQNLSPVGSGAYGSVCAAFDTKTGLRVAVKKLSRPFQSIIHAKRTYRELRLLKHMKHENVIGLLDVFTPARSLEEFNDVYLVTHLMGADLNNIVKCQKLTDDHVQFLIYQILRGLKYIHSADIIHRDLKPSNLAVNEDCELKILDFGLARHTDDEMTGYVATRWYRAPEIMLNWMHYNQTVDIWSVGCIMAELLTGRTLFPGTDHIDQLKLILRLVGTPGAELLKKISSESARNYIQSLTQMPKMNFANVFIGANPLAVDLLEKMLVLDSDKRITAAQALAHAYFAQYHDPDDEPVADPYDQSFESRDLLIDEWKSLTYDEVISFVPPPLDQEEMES
For assay [5], the target named is Mitogen-activated protein kinase 8 (Homo sapiens) (UniProt P45983). The experiment in a line: Inhibition of full length wild type human JNK1 (M1 to Q384 residues) expressed in mammalian expression system assessed as residual activity at 2 uM by KINOMEscan assay.
Chain of Mitogen-activated protein kinase 8 (Homo sapiens) (P45983 whole entry, the tested form may be a part): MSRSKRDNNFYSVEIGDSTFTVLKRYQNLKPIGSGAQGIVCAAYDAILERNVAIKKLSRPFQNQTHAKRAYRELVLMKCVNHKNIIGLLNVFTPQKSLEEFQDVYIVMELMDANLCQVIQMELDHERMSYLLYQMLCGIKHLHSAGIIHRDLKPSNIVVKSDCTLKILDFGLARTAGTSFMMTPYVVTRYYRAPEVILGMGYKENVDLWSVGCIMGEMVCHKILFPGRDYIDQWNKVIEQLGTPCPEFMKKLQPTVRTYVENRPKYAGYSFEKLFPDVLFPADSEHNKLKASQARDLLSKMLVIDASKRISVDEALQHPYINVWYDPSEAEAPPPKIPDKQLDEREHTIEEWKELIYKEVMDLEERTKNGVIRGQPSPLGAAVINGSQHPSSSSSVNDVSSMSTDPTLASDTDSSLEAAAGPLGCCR
Assay [6] has as its target Glycogen synthase kinase-3 beta (Homo sapiens, UniProt P49841). Briefly: Binding affinity to full length wild type human GSK3beta (M1 to T433 residues) expressed in mammalian expression system by KINOMEscan assay.
The target in assay [7] is Mitogen-activated protein kinase 10 (Homo sapiens) (UniProt P53779). The experiment in a line: Inhibition of full length wild type human JNK3 (M1 to Q382 residues) expressed in mammalian expression system assessed as residual activity at 2 uM by KINOMEscan assay.
Chain of Mitogen-activated protein kinase 10 (Homo sapiens) (P53779 whole entry, the tested form may be a part): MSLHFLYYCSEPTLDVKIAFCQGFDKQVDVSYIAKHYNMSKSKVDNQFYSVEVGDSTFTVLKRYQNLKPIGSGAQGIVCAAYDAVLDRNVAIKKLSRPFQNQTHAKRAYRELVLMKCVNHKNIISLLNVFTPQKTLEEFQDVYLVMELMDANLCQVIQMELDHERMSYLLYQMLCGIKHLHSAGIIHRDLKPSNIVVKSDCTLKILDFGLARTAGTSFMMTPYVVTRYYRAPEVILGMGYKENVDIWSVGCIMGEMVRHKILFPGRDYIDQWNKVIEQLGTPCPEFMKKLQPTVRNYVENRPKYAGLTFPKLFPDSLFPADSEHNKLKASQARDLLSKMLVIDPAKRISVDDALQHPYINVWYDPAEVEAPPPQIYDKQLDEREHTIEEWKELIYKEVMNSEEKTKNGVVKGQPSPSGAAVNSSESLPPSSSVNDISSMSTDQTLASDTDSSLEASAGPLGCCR
Assay [8] has as its target Mitogen-activated protein kinase 3 (Homo sapiens) (UniProt P27361). The experiment in a line: Inhibition of full length wild type human ERK1 (M1 to P379 residues) expressed in bacterial expression system assessed as residual activity at 2 uM by KINOMEscan assay.
Assay [9] has as its target Mitogen-activated protein kinase 11 (Homo sapiens) (UniProt Q15759). The experiment in a line: Inhibition of full length wild type human p38beta (M1 to Q364 residues) expressed in bacterial expression system assessed as residual activity at 2 uM by KINOMEscan assay.
Assay [10] concerns the target T1, Mitogen-activated protein kinase 1. Briefly: Inhibition of phosphorylated ERK2 (unknown origin) using myelin basic protein as substrate after 2 hrs in presence of ATP by ADP-glo assay. (In general: In ADP-Glo the light output rises with the ADP produced.)

Chain of Glycogen synthase kinase-3 beta (P49841 whole entry, the tested form may be a part): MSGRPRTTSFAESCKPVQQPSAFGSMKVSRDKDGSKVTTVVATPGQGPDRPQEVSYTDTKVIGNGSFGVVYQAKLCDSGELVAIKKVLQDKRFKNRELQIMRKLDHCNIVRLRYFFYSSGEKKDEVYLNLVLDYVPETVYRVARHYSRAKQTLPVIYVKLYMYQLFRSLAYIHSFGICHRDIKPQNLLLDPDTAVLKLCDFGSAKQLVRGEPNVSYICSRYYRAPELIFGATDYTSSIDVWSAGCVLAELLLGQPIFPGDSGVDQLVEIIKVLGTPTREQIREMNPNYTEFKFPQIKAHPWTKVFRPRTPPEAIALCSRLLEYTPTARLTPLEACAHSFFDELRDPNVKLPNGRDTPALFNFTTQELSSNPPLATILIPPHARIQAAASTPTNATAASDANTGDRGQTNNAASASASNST
Chain of Mitogen-activated protein kinase 3 (Homo sapiens) (P27361 whole entry, the tested form may be a part): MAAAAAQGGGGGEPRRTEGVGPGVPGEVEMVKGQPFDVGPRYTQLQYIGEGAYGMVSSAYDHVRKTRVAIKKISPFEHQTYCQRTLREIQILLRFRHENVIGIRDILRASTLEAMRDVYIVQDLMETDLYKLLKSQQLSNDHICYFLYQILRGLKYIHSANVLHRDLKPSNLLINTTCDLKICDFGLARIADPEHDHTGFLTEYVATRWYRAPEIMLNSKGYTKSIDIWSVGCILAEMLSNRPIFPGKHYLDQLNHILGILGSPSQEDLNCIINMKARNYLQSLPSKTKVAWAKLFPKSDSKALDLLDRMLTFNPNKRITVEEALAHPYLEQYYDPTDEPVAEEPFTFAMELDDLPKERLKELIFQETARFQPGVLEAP
Chain of Mitogen-activated protein kinase 11 (Homo sapiens) (Q15759 whole entry, the tested form may be a part): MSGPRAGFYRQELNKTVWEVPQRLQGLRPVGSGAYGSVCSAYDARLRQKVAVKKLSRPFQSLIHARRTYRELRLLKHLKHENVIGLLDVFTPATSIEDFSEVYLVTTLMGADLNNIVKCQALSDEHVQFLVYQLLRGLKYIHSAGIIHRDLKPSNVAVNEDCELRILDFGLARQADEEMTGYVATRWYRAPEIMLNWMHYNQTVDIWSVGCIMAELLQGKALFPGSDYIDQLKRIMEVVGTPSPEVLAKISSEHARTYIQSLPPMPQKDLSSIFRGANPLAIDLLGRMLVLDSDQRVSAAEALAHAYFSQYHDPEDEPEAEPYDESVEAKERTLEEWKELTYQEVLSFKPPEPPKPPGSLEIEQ

H-EIIKLAPPPKKA-OH had a Kd in assay [1] of 18000 nM. In other words, the double-digit micromolar range.
Take H-PQLKPIESSILAQRRVRKLPSTTL-OH: the Selectivity ratio in assay [2] was 20.
As for `CC[C@H](C)[C@H](NC(=O)[C@H](CO)NC(=O)[C@H](CO)NC(=O)[C@H](CCC(=O)O)NC(=O)[C@@H](NC(=O)[C@@H]1CCCN1C(=O)[C@H](CCCCN)NC(=O)[C@H](CC(C)C)NC(=O)[C@H](CCC(N)=O)NC(=O)[C@H](C)NC(=O)[C@@H](NC(=O)CNC(=O)C(N)CCCCn1cc(CCCCNC(=O)CCCCCn2nc(N)c3cc(-c4c(-c5ccccc5)nn5ccccc45)nnc32)nn1)[C@@H](C)O)[C@@H](C)CC)C(=O)N[C@@H](CC(C)C)C(=O)N[C@@H](C)C(=O)N[C@@H](CCC(N)=O)C(=O)N[C@@H](CCCNC(=N)N)C(=O)N[C@@H](CCCNC(=N)N)C(=O)N[C@H](C(=O)N[C@@H](CCCNC(=N)N)C(=O)N[C@@H](CCCCN)C(=O)O)C(C)C` (some centres not stated), the Activity is 0.1% in [3]; 0.25% in assay [4]; 0.1% in [5]; 0.1% in assay [7]; 0.15% in assay [8]; 11% in assay [9]. In assay [6], this compound yielded a Kd of more than 2500 nM.
As to `CC[C@H](C)[C@H](NC(=O)[C@H](CCC(=O)O)NC(=O)CCOCCOCCOCCOCCNC(=O)Cn1nc(N)c2cc(-c3c(-c4ccccc4)nn4ccccc34)nnc21)C(=O)N[C@H](C(=O)N[C@@H](CCCCN)C(=O)N[C@@H](CC(C)C)C(=O)N[C@@H](C)C(=O)N1CCC[C@H]1C(=O)N1CCC[C@H]1C(=O)N1CCC[C@H]1C(=O)N[C@@H](CCCCN)C(=O)N[C@@H](CCCCN)C(=O)N[C@@H](C)C(=O)O)[C@@H](C)CC` ({X1-PEG4}-EIIKLAPPPKKA-OH), in [10], the IC50 came to 700 nM.
On to `CC[C@H](C)[C@H](NC(=O)[C@H](CO)NC(=O)[C@H](CO)NC(=O)[C@H](CCC(=O)O)NC(=O)[C@@H](NC(=O)[C@@H]1CCCN1C(=O)[C@H](CCCCN)NC(=O)[C@H](CC(C)C)NC(=O)[C@H](CCC(N)=O)NC(=O)[C@H](C)NC(=O)[C@@H](NC(=O)CCOCCOCCOCCOCCNC(=O)Cn1nc(N)c2cc(-c3c(-c4ccccc4)nn4ccccc34)nnc21)[C@@H](C)O)[C@@H](C)CC)C(=O)N[C@@H](CC(C)C)C(=O)N[C@@H](C)C(=O)N[C@@H](CCC(N)=O)C(=O)N[C@@H](CCCNC(=N)N)C(=O)N[C@@H](CCCNC(=N)N)C(=O)N[C@H](C(=O)N[C@@H](CCCNC(=N)N)C(=O)N[C@@H](CCCCN)C(=O)N[C@@H](CCCNC(=N)N)C(=O)N[C@@H](CCCCN)C(=O)N[C@@H](CCCCN)C(=O)N[C@@H](CCCNC(=N)N)C(=O)N[C@@H](CCCNC(=N)N)C(=O)N[C@@H](CCC(N)=O)C(=O)N[C@@H](CCCNC(=N)N)C(=O)N[C@@H](CCCNC(=N)N)C(=O)N[C@@H](CCCNC(=N)N)C(=O)O)C(C)C` ({X1-PEG4}-TAQLKPIESSILAQRRVRKRKKRRQRRR-OH), for which the half-maximal inhibitory concentration (IC50) in assay [10] was determined as 14 nM.
With `Nc1nn(CC(=O)O)c2nnc(-c3c(-c4ccccc4)nn4ccccc34)cc12`, the IC50 in assay [10] was 12300 nM.
